Assays:
CDKL5 = biological target: T1, CDKL5 (Homo sapiens, UniProt O76039); assay: kinase binding constant, 11-point dose response (T7 phage, qPCR); conditions: >30 = no inhibition at highest concentration tested
T1 sequence (O76039 1-960): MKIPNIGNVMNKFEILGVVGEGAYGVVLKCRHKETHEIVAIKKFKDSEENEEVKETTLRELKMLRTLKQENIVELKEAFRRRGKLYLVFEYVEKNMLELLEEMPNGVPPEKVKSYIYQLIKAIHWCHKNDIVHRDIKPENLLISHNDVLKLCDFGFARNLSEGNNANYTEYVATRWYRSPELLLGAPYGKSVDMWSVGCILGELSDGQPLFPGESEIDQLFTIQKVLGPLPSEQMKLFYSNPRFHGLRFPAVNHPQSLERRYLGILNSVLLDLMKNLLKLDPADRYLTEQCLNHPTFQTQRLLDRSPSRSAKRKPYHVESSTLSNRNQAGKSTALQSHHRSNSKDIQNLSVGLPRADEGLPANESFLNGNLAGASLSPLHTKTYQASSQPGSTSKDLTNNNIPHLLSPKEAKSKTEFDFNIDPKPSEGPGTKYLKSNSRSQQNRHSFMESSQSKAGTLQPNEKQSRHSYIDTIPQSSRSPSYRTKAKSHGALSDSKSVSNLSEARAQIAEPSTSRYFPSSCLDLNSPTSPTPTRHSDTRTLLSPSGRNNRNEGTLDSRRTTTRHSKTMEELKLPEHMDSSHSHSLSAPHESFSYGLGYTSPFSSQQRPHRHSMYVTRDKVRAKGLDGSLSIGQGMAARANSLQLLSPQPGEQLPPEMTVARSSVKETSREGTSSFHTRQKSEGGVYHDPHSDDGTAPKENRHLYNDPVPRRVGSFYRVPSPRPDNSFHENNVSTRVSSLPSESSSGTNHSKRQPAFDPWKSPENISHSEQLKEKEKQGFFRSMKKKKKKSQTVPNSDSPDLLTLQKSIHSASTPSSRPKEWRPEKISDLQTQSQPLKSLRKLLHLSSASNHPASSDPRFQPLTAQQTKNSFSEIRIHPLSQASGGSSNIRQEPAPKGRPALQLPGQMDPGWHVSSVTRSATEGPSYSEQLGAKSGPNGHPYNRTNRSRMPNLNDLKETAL
Experimental: (§1) Kinase inhibition studies were performed by methods well known in the prior art (Fabian, M. A. et al. Nat. Biotechnol. 2005, 23, 329). Briefly, kinase-tagged T7 phage strains were prepared in an E. coli host derived from the BL21 strain. E. coli were grown to log-phase and infected with T7 phage and incubated with shaking at 32° C. until lysis. The lysates were centrifuged and filtered to remove cell debris. […] The liganded beads were blocked with excess biotin and washed with blocking buffer (SeaBlock (Pierce); 1% BSA, 0.05% Tween 20, 1 mM DTT) to remove unbound ligand and to reduce non-specific binding. […] All reactions were performed in polystyrene 96-well plates in a final volume of 0.135 ml. […] The kinase concentration in the eluates was measured by qPCR.
(§2) An 11-point 3-fold serial dilution of each test compound (from 30 μM to 0.5 nM) was prepared in 100% DMSO at 100× final test concentration and subsequently diluted to 1× in the assay (final DMSO concentration=1%). Binding constants (KDS) were calculated with a standard dose-response curve using a 5-point sigmoidal (Hill) equation.

IRAK3 = biological target: T2, IRAK3 (Homo sapiens, UniProt Q9Y616); assay: as above; conditions: >30 = no inhibition at highest concentration tested
T2 sequence (Q9Y616 1-596): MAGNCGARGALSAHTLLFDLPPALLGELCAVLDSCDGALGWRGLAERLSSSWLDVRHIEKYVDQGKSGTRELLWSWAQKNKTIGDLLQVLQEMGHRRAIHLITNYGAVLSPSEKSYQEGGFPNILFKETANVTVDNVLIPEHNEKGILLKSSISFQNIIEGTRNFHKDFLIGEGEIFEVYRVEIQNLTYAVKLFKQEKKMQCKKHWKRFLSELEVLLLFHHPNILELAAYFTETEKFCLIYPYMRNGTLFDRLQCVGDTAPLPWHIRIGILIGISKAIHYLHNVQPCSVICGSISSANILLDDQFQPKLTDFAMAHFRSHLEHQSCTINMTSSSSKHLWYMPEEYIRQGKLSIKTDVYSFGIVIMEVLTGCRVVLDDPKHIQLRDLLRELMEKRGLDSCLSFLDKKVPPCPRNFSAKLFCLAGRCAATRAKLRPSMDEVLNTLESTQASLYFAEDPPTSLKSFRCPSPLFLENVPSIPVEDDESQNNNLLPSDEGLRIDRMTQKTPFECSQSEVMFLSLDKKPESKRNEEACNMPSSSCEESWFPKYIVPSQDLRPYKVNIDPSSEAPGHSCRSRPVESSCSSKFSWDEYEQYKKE
Experimental: as §1, §2

## Nc1nc2c(-c3cnc4ccccc4c3)nccc2[nH]1 [drawing 36, 4-(quinolin-3-yl)-1H-imidazo[4,5-c]pyridin-2-amine]
CDKL5
  Kd: > 30 µM
IRAK3
  Kd: 8.9 µM

— patent US20110152313A1 (MACQUARIE UNIVERSITY, priority 2008, published 2011)
